According to US20230310347A1, “BACTERICIDE” (priority 2020, published 2023):

How the values were obtained:
[1] = Storage stability of ingredient (B) alone or mixed with Hinokitiol, GC area percentage; type: physicochemical
Protocol: The storage stability of limonene alone and the storage stability of limonene mixed with Hinokitiol were evaluated.
Specifically, limonene was placed in a glass vial, which was hermetically sealed by tightening a septum with an aluminum cap.
Furthermore, 50 parts by mass of limonene and 50 parts by mass of Hinokitiol were mixed, placed in a glass vial different from the above-described glass vial, and hermetically sealed by tightening a septum with an aluminum cap. These two samples were stored at 60° C. for 7 days, and the area percentage of limonene in the glass vials was measured by GC (the instrument: GC-2010 Plus manufactured by Shimadzu Corporation; the detector: flame ionization detector; the column: DB-624 manufactured by Agilent Technologies Japan, Ltd.) immediately after the start of the experiment, after 1 day, after 4 days, and after 7 days. The initial data (immediately after the start of the experiment) was the GC measurement result of limonene alone.
Regarding α-terpinene, γ-terpinene, and terpinen-4-ol, the storage stability of each of these alone and the storage stability of each of these mixed with Hinokitiol were evaluated.
Specifically, measurements were made in the same manner as Experiment Example 6-1 except that limonene was changed to α-terpinene, γ-terpinene, and terpinen-4-ol, respectively. It is noted that, regarding γ-terpinene, GC measurements were only made immediately after the start of the experiment, after one day, and after seven days.

[2] = test system: Propionibacterium acnes (GAI 5419); experiment: Bactericidal property (Propionibacterium acnes), number of viable bacteria; type: cell-based; details: for bactericidal effects against Cutibacterium acnes (in words): each ingredient alone, concentration not given
Protocol: Propionibacterium acnes (GAI 5419) was inoculated on a GAM agar medium (manufactured by Nissui Pharmaceutical Co., Ltd.) and precultured under anaerobic conditions at 35° C.±1° C. for 18 to 24 hours. A solution containing Propionibacterium acnes was prepared by diluting the solution to 10^7 to 10^8 bacteria/mL of Propionibacterium acnes with physiological saline.
Next, 10 mL of the samples obtained in Preparation Example 1 were inoculated with 0.1 mL of the above-mentioned solution containing Propionibacterium acnes. These were stored at room temperature for 30 minutes and then diluted 10-fold with an SCDLP agar medium (manufactured by Nihon Pharmaceutical Co., Ltd.) and neutralized. These were poured onto a GAM agar medium (manufactured by Nissui Pharmaceutical Co., Ltd.) according to the pour plate culture method, and anaerobically cultured at 35° C.±1° C. for 2 to 5 days. After that, the numbers of viable bacteria were determined from the numbers of colonies formed and the dilution factor. It is noted that physiological saline was used for the control in place of the samples.
The numbers of viable bacteria were determined in the same manner as Experiment Example 1-1 except that the samples obtained in Preparation Example 1 were changed to the samples obtained in Preparation Example 2.
The numbers of viable bacteria were determined in the same manner as Experiment Example 1-1 except that the samples obtained in Preparation Example 1 were changed to the above-mentioned Samples α30 to α33.
Furthermore, Sample β20 (100 μg/mL of Hinokitiol+100 μg/mL of linalool) was prepared in the same manner as Sample al except that tea tree oil was changed to linalool.

[3] = 60° C., After 1 day, Hinokitiol Absent
[4] = 60° C., After 1 day, Hinokitiol Present (50:50 parts by mass)
[5] = 60° C., After 4 days, Hinokitiol Absent
[6] = 60° C., After 4 days, Hinokitiol Present (50:50 parts by mass)
[7] = 60° C., After 7 days, Hinokitiol Absent
[8] = 60° C., After 7 days, Hinokitiol Present (50:50 parts by mass)
[9] = Immediately after the start of the experiment, Hinokitiol Absent
[10] = Immediately after the start of the experiment, Hinokitiol Present (initial data = GC result of ingredient alone)

| Compound | residual ratio (area percentage (%)) [1, 3] [%] | residual ratio (area percentage (%)) [1, 4] [%] | residual ratio (area percentage (%)) [1, 5] [%] | residual ratio (area percentage (%)) [1, 6] [%] | residual ratio (area percentage (%)) [1, 7] [%] | residual ratio (area percentage (%)) [1, 8] [%] | residual ratio (area percentage (%)) [1, 9] [%] | residual ratio (area percentage (%)) [1, 10] [%] | storage stability (in words) ([1]; when combined with a phenol derivative typified by Hinokitiol, Tables 10 to 13) | bactericidal effects against Propionibacterium acnes (in words) ([2]; 100 μg/mL, Tables 1 and 2) | bactericidal effects against Propionibacterium acnes (in words) ([2]; 50 βg/mL, Table 5) | bactericidal effects against Cutibacterium acnes (in words) [2] |
| --- | --- | --- | --- | --- | --- | --- | --- | --- | --- | --- | --- | --- |
| (+)-Limonene | 95.67 | 96.49 | 95.45 | 96.57 | 94.43 | 96.41 | 96.85 | 96.85 | superior storage stability | no bactericidal effects | no bactericidal effects | almost no bactericidal effects |
| CC1=CCC(C(C)C)=CC1 [γ-Terpinene, γ-terpinene] | 92.09 | 92.22 | – | – | 85.49 | 84.44 | 96.81 | 96.81 | – | no bactericidal effects | no bactericidal effects | almost no bactericidal effects |
| Cc1cc(O)ccc1C(C)C [Isopropylmethylphenol, 4-isopropyl-3-methylphenol] | – | – | – | – | – | – | – | – | – | insufficient bactericidal effects | – | – |
| CC(C)c1cccc(=O)c(O)c1 [Hinokitiol] | – | – | – | – | – | – | – | – | – | insufficient bactericidal effects | insufficient bactericidal effects | – |
| CC1=CCC(O)(C(C)C)CC1 (stereo not shown) [Terpinen-4-ol, terpinen-4-ol] | 92.86 | 97.13 | 84.09 | 96.83 | 74.45 | 96.52 | 96.94 | 96.94 | – | insufficient bactericidal effects | insufficient bactericidal effects | insufficient |
| CC1=CC=C(C(C)C)CC1 [α-Terpinene, α-terpinene] | 85.27 | 82.68 | 81.54 | 77.11 | 78.45 | 70.49 | 89.95 | 89.95 | – | no bactericidal effects | no bactericidal effects | almost no bactericidal effects |
